Literature values in patent US11964949B2, “Substituted phenyloxazolidinones for antimicrobial therapy” (priority 2015, dated 2024).

Test system: Mycobacterium tuberculosis, including multidrug-resistant (MDR) and extensively drug resistant (XDR) strains
Details: M. tuberculosis incl. MDR and XDR strains; cited from earlier work

For CC(=O)NC[C@H]1CN(c2ccc(N3CCOCC3)c(F)c2)C(=O)O1 [Linezolid], the “minimum inhibitory concentration (MIC)” value is listed as “less than 1 ag/ml”.
